Measured values as given in publication PMC7216583 (Parasites & Vectors, 2020).
Counter-ions that a name gives are not always drawn.

Assays:
Her-2 degradation = tested on: Her-2 degradation; parameters: method as in S-inhibitor catalog; conditions: vendor brief description; ref S-inhibitor catalog; cited from earlier work
HSP90 = biological target: HSP90; parameters: method as in S-inhibitor catalog; conditions: vendor brief description; ref S-inhibitor catalog; cited from earlier work
[1] = tested on: Toxoplasma gondii RH-2F tachyzoites; experiment: microbe, parasite or virus in culture; conditions: 72 h, read-out: Parasite inhibition (%) mean, preliminary screen of compound library, mean
p38α = conditions: read-out: IC50, p38α; vendor brief description; ref S-inhibitor catalog; cited from earlier work
[2] = biological target: hydroxymethylglutaryl coenzyme A reductase (HMGCR); parameters: method as in S-inhibitor catalog; conditions: vendor brief description; ref S-inhibitor catalog; cited from earlier work
human DGAT-1 = tested on: human DGAT-1; parameters: method as in S-inhibitor catalog; conditions: vendor brief description; ref S-inhibitor catalog; cited from earlier work
mouse DGAT-1 = tested on: mouse DGAT-1; parameters: method as in S-inhibitor catalog; conditions: vendor brief description; ref S-inhibitor catalog; cited from earlier work
MDMX = tested on: MDMX; parameters: method as in S-inhibitor catalog; conditions: vendor brief description; ref S-inhibitor catalog; read-out: IC50, MDMX suppression; cited from earlier work
[3] = biological target: Aβ40 production (γ-secretase); parameters: method as in S-inhibitor catalog; conditions: in human SH-SY5Y cells; vendor brief description; ref S-inhibitor catalog; read-out: IC50, reduction of Aβ40 production; cited from earlier work
Ret = tested on: Ret; parameters: method as in S-inhibitor catalog; conditions: vendor brief description; ref S-inhibitor catalog; cited from earlier work
Flt3 = tested on: Flt3; parameters: method as in S-inhibitor catalog; conditions: vendor brief description; ref S-inhibitor catalog; cited from earlier work
JAK2 = tested on: JAK2; parameters: method as in S-inhibitor catalog; conditions: vendor brief description; ref S-inhibitor catalog; cited from earlier work
cancer cell lines = tested on: cancer cell lines; parameters: method as in S-inhibitor catalog; conditions: vendor brief description; ref S-inhibitor catalog; cited from earlier work
Notch (γ-secretase) = biological target: Notch (γ-secretase); parameters: method as in S-inhibitor catalog; conditions: vendor brief description; ref S-inhibitor catalog; cited from earlier work
APPL (γ-secretase) = biological target: APPL (γ-secretase); parameters: method as in S-inhibitor catalog; conditions: vendor brief description; ref S-inhibitor catalog; cited from earlier work
Chk1 = tested on: Chk1; parameters: method as in S-inhibitor catalog; conditions: vendor brief description; ref S-inhibitor catalog; cited from earlier work
5-HT1D = biological target: 5-HT1D; parameters: method as in S-inhibitor catalog; conditions: vendor brief description; ref S-inhibitor catalog; cited from earlier work
[4] = biological target: glycogen phosphorylase (GP); parameters: method as in S-inhibitor catalog; conditions: vendor brief description; ref S-inhibitor catalog; cited from earlier work
CDK4 = tested on: CDK4; parameters: method as in S-inhibitor catalog; conditions: vendor brief description; ref S-inhibitor catalog; cited from earlier work
CDK6 = tested on: CDK6; parameters: method as in S-inhibitor catalog; conditions: vendor brief description; ref S-inhibitor catalog; cited from earlier work
CDK7 = tested on: CDK7; parameters: method as in S-inhibitor catalog; conditions: vendor brief description; ref S-inhibitor catalog; cited from earlier work
CDK1 = tested on: CDK1; parameters: method as in S-inhibitor catalog; conditions: vendor brief description; ref S-inhibitor catalog; cited from earlier work
p110β = biological target: p110β; parameters: method as in S-inhibitor catalog; conditions: vendor brief description; ref S-inhibitor catalog; cited from earlier work
GPR40 = tested on: GPR40; parameters: method as in S-inhibitor catalog; conditions: vendor brief description; ref S-inhibitor catalog; read-out: EC50, GPR40 agonist; cited from earlier work

SMILES: CC1(C)CC(=O)c2c(C(F)(F)F)nn(-c3ccc(C(N)=O)c(N[C@H]4CC[C@H](OC(=O)CN)CC4)c3)c2C1 [PF-04929113 (SNX-5422)]
- IC50 (Her-2 degradation): 0.037 µM
- Kd (HSP90): 0.041 µM
- inhibition of growth at 5 µM [1]: 4.6%

SMILES: CNC(=O)c1ccc(C)c(-n2c(C)cc(OCc3ccc(F)cc3F)c(Br)c2=O)c1 [PH-797804]
- inhibition of growth at 5 µM [1]: 1.5%
- IC50 (p38α): 0.026 µM

SMILES: CCC(C)(Oc1ccc(C2(c3ccc(OC(C)(CC)C(=O)O)cc3)CCCCC2)cc1)C(=O)O (centres unmarked) [Clinofibrate]
- inhibition of growth at 5 µM [1]: 0.1%
- IC50 [2]: 470 µM

SMILES: O=C(Nc1ccccc1)Nc1ccc(-c2ccc(C(=O)[C@@H]3CCC[C@@H]3C(=O)O)cc2)cc1 [A 922500]
- IC50 (human DGAT-1): 0.007 µM
- IC50 (mouse DGAT-1): 0.024 µM
- inhibition of growth at 5 µM [1]: 2%

SMILES: CN1CCN(c2ccc([N+](=O)[O-])c3no[n+]([O-])c23)CC1 [NSC-207895 (XI-006)]
- IC50 (MDMX): 2.5 µM
- inhibition of growth at 5 µM [1]: 0.2%

SMILES: O=C(O)CC[C@H]1CC[C@@](c2cc(F)ccc2F)(S(=O)(=O)c2ccc(Cl)cc2)CC1 [MK-0752]
- inhibition of growth at 5 µM [1]: 7.5%
- IC50 [3]: 0.005 µM

SMILES: Cc1cnc(Nc2ccc(N3CCN(C)CC3)cc2)nc1Nc1cccc(S(=O)(=O)NC(C)(C)C)c1 [TG101209]
- IC50 (Ret): 0.017 µM
- IC50 (Flt3): 0.025 µM
- inhibition of growth at 5 µM [1]: -21.3%
- IC50 (JAK2): 0.006 µM

SMILES: O=C(Cc1ccc(-c2ccc(OCCN3CCOCC3)cc2)cn1)NCc1ccccc1 [KX2-391]
- GI50 (cancer cell lines): 0.009 to 0.06 µM
- inhibition of growth at 5 µM [1]: 7.6%

SMILES: C[C@H](NC(=O)Cc1cc(F)cc(F)c1)C(=O)N[C@@H]1C(=O)N(C)c2ccccc2-c2ccccc21 [YO-01027]
- IC50 (Notch (γ-secretase)): 0.0029 µM
- IC50 (APPL (γ-secretase)): 0.0026 µM
- inhibition of growth at 5 µM [1]: 1.4%

SMILES: O=c1[nH]c2ccc(Cl)cc2c(N[C@@H]2CN3CCC2CC3)c1-c1nc2ccccc2[nH]1 [CHIR-124]
- IC50 (Chk1): 0.0003 µM
- inhibition of growth at 5 µM [1]: 0%

SMILES: CC1(C)C(=O)N(CCN2CCC(C(=O)c3ccc(F)cc3)CC2)c2ccccc21 [LY310762]
- Ki (5-HT1D): ~0.2 µM
- inhibition of growth at 5 µM [1]: 1.5%

SMILES: CN(C)C(=O)[C@H](O)[C@H](Cc1ccccc1)NC(=O)c1cc2cc(Cl)ccc2[nH]1 [CP-91149]
- IC50 [4]: 0.13 µM
- inhibition of growth at 5 µM [1]: 28.6%

SMILES: CN1CC[C@H](c2c(O)cc(O)c3c(=O)cc(-c4ccccc4Cl)oc23)[C@H](O)C1 [Flavopiridol (Alvocidib) HCl]
- IC50 (CDK7): 0.3 µM
- inhibition of growth at 5 µM [1]: 6.4%

SMILES: COc1ncc(-c2ccc3nccc(-c4ccnnc4)c3c2)cc1NS(=O)(=O)c1ccc(F)cc1F [GSK2126458]
- inhibition of growth at 5 µM [1]: 21.3%

SMILES: Cc1cc(OCCCS(C)(=O)=O)cc(C)c1-c1cccc(COc2ccc3c(c2)OC[C@H]3CC(=O)O)c1 [TAK-875]
- inhibition of growth at 5 µM [1]: -10.4%
